Laboratory results as given in patent publication US20250163456A1, “AGENT FOR ENHANCING PRODUCTION OF VIRAL VECTOR AND METHOD FOR PRODUCING VIRAL VECTOR” (priority 2022, published 2025).

System: HEK293 cells
Test: Evaluation of AAV vector-producing ability by treatment with chemical substance (rAAV1 virus titer by qPCR)
Assay type: cell-based, human
Settings: HEK293 cells producing rAAV1, serum-free E-MEM with chemical substance at various concentrations, 3 days culture, virus titer (v.g.) vs untreated control
Procedure: The cells of the immortalized cell line derived from the human embryonic kidney (HEK293 cells) purchased from ATCC (American Type Culture Collection) were cultured in E-MEM supplemented with 10% fetal bovine serum, penicillin, and streptomycin at 37° C. in the presence of 5% CO2.
The recombinant adeno-associated virus 1 (rAAV1) was prepared with the use of 3 types of plasmids: pAAV-ZsGreen1 (TaKaRa Bio), pAAV2/1, and pHelper. A mixture of 3 types of plasmids for preparation of rAAV1 was adjusted to bring the mixing ratio of DNA to Polyethylenimine Max (PEI:Polysciences) (DNA:PEI) to 1:2 in OPTI-MEM, and the reaction was allowed to proceed at room temperature for 15 minutes. […]
Genome DNA of rAAV1 was extracted to measure the virus titer. […] The virus titer was measured by real-time PCR in triplicate. qPCR was performed using primers targeting Zs-Green 1. […]
In the present example, effects of enhancing production of AAV vectors achieved with the use of chemical substances different from the chemical substances tested in Example 1 were measured in the same manner as in Example 1.
In the present comparative example, effects of enhancing production of AAV vectors were measured in the same manner as in Example 1, except for the use of ascorbic acid (2.5, 5, or 10 μg/ml) disclosed in the examples of WO 2021/138387. […]

O=C1O[C@H]([C@@H](O)CO)C(O)=C1O [ascorbic acid]
effects of enhancing the amount of production of AAV vectors: no significant differences were observed
